Assay results as given in patent publication US20230210999A1, “TARGETED PROTEASE DEGRADATION (TED) PLATFORM” (EUBULUS BIOTHERAPEUTICS INC., priority 2020, published 2023).

Legend:
MV4;11 cells = experiment: Cell proliferation experiment (Alamar blue, 72 h), MV4;11; assay type: cell-based, human; conditions: Homo sapiens, MV4-11, 72 h, MV4;11 cells, 72 h; read-out: Inhibitory activity IC50 of tested compounds on MV4;11 cells
In short: (§1)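 Alamar blue fluorescence after 72 h of compound exposure; IC50 from 4-parameter fit (Min, Max, Slope). Cells passaged ≥2 times, log-phase, 96-well, duplicate wells, 5-fold serial dilutions.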

HL-60 cells = experiment: Cell proliferation experiment, HL-60; assay type: cell-based; conditions: Homo sapiens, 72 h, read-out: Inhibitory activity IC50 of tested compounds on HL-60 cells
Description: (§2) Reagents: RPMI-1640 medium, McCoy's 5A medium, IMDM medium, MEM medium, L-15 medium, fetal bovine serum. Penicillin-Streptomycin double antibody, trypsin, etc., 2-mercaptoethanol, NEAA, pyruvate, etc.
(§3) The cells were cultured in conventional ways, and the cells should be passed at least 2 generations before plating. Cells at the logarithmic growth phase were collected, prepared into single cell suspensions and counted. The concentration of cells was adjusted to the desired concentration, and cells were inoculated into a 96-well cell culture plate at 100 μl per well. 100 μL of complete medium of the test compound were added to each well, set up 2 duplicate wells for each concentration, and diluted with a 5-fold gradient, and continued to culture for 72 h. All cells were subjected to IC50 test for corresponding samples. The experimental results are shown in Test Example 4.
(§4) The fluorescence intensity of each well was detected using the Alarm blue method, and IC50 was calculated.
(§5) IC50 was calculated according to the following formula:
(§6) Y=Max+(Min−Max)/[1+(X/IC50)×Slope]
(§7) wherein Min, Max and Slope represent the minimum, maximum and slope respectively.

Daudi cells = experiment: Cell proliferation experiment, Daudi; assay type: cell-based, human; conditions: Homo sapiens, Daudi, 72 h, Daudi cells, 72 h; read-out: Inhibitory activity IC50 of tested compounds on Daudi cells
In short: as §1

NCIH82 cells = experiment: Cell proliferation experiment, NCI-H82; assay type: cell-based, human; conditions: Homo sapiens, NCI-H82, 72 h, NCIH82 cells, 72 h; read-out: Inhibitory activity IC50 of tested compounds on NCIH82 cells
In short: as §1

HT-29 cells = experiment: Cell proliferation experiment, HT-29; assay type: cell-based; conditions: Homo sapiens; HT-29 cells, 72 h; read-out: Inhibitory activity IC50 of tested compounds on HT-29 cells
Description: as §2, §3, §4, §5, §6, §7

U-87MG cells = experiment: Cell proliferation experiment, U-87MG; assay type: cell-based; conditions: Homo sapiens; U-87MG cells, 72 h; read-out: Inhibitory activity IC50 of tested compounds on U-87MG cells
Description: as §2, §3, §4, §5, §6, §7

THP-1 cells = experiment: Cell proliferation experiment, THP-1; assay type: cell-based; conditions: Homo sapiens, 72 h, read-out: Inhibitory activity IC50 of tested compounds on THP-1 cells
Description: as §2, §3, §4, §5, §6, §7

MDA-MB-231 cells = experiment: Cell proliferation experiment, MDA-MB-231; assay type: cell-based, human; conditions: Homo sapiens, MDA-MB-231, 72 h, MDA-MB-231 cells, 72 h; read-out: Inhibitory activity IC50 of tested compounds on MDA-MB-231 cells
In short: as §1

HUVEC cells = experiment: Cell proliferation experiment, HUVEC; assay type: cell-based; conditions: Homo sapiens, 72 h, read-out: Inhibitory activity IC50 of tested compounds on HUVEC cells
Description: as §2, §3, §4, §5, §6, §7

Hela cells = experiment: Cell proliferation experiment, Hela; assay type: cell-based; conditions: Homo sapiens, 72 h, read-out: Inhibitory activity IC50 of tested compounds on Hela cells
Description: as §2, §3, §4, §5, §6, §7

SMILES	IC50 (MV4;11 cells) [nM]	IC50 (HL-60 cells) [nM]	IC50 (Daudi cells) [nM]	IC50 (NCIH82 cells) [nM]	IC50 (HT-29 cells) [nM]	IC50 (U-87MG cells) [nM]	IC50 (THP-1 cells) [nM]	IC50 (MDA-MB-231 cells) [nM]	IC50 (HUVEC cells) [nM]	IC50 (Hela cells) [nM]
CC[C@@H]1C(=O)N(C)c2cnc(Nc3ccc(C(=O)NC4CCN(CCOCCNCCC#Cc5cccc6c5CN(C5CCC(=O)NC5=O)C6=O)CC4)cc3OC)nc2N1C1CCCC1 (stereo partly shown) [Compound 874]	≤ 100	≤ 1000	100 to 1000	≤ 1000	300 to 1000	100 to 500	≤ 1000			
CC[C@@H]1C(=O)N(C)c2cnc(Nc3ccc(C(=O)NCCCOCCOCCNCCC#Cc4cccc5c4CN(C4CCC(=O)NC4=O)C5=O)cc3OC)nc2N1C1CCCC1 (stereo partly shown) [Compound 890]	≤ 100	≤ 1000	≤ 100	≤ 1000	300 to 1000	100 to 500		≤ 500	≤ 1000	
CC[C@@H]1C(=O)N(C)c2cnc(Nc3ccc(C(=O)NCCC#Cc4cccc5c4CN(C4CCC(=O)NC4=O)C5=O)cc3OC)nc2N1C1CCCC1 (stereo partly shown) [Compound 891]	100 to 1000	≤ 1000		≤ 1000	300 to 1000	100 to 500				
CC[C@@H]1C(=O)N(C)c2cnc(Nc3ccc(C(=O)NCCCOCCCOCCNCCC#Cc4cccc5c4CN(C4CCC(=O)NC4=O)C5=O)cc3OC)nc2N1C1CCCC1 (stereo partly shown) [Compound 892]	≤ 100	≤ 1000	100 to 1000	≤ 1000	300 to 1000	≤ 100		≤ 500	≤ 1000	≤ 1000
CC[C@@H]1C(=O)N(C)c2cnc(Nc3ccc(C(=O)NCCCOCCNCCOCCC#Cc4cccc5c4CN(C4CCC(=O)NC4=O)C5=O)cc3OC)nc2N1C1CCCC1 (stereo partly shown) [Compound 893]	≤ 100	≤ 1000	≤ 100	≤ 1000	≤ 300	≤ 100		≤ 500	≤ 1000	≤ 1000
CC[C@@H]1C(=O)N(C)c2cnc(Nc3ccc(C(=O)NC4CCN(CCCOCCNCCC#Cc5cccc6c5CN(C5CCC(=O)NC5=O)C6=O)CC4)cc3OC)nc2N1C1CCCC1 (stereo partly shown) [Compound 895]	≤ 100	≤ 1000	100 to 1000	≤ 1000	300 to 1000	100 to 500				
CC[C@@H]1C(=O)N(C)c2cnc(Nc3ccc(C(=O)NC4CCN(CCCOCCN(C)CCC#Cc5cccc6c5CN(C5CCC(=O)NC5=O)C6=O)CC4)cc3OC)nc2N1C1CCCC1 (stereo partly shown) [Compound 897]	≤ 100	≤ 1000	100 to 1000	≤ 1000	≤ 300	100 to 500				
CC[C@@H]1C(=O)N(C)c2cnc(Nc3ccc(C(=O)NC4CCN(CCNCCCOCCCC#Cc5cccc6c5CN(C5CCC(=O)NC5=O)C6=O)CC4)cc3OC)nc2N1C1CCCC1 (stereo partly shown) [Compound 899]	≤ 100	≤ 1000	≤ 100	≤ 1000	≤ 300	≤ 100				
CC[C@@H]1C(=O)N(C)c2cnc(Nc3ccc(C(=O)NC4CCN(CCN(C)CCCOCCCC#Cc5cccc6c5CN(C5CCC(=O)NC5=O)C6=O)CC4)cc3OC)nc2N1C1CCCC1 (stereo partly shown) [Compound 900]	≤ 100	≤ 1000	≤ 100	≤ 1000	≤ 300	≤ 100				
CC[C@@H]1C(=O)N(C)c2cnc(Nc3ccc(C(=O)NC4CCN(CCCNCCCOCCCC#Cc5cccc6c5CN(C5CCC(=O)NC5=O)C6=O)CC4)cc3OC)nc2N1C1CCCC1 (stereo partly shown) [Compound 901]	≤ 100	≤ 1000		≤ 1000	300 to 1000	100 to 500				
CC[C@@H]1C(=O)N(C)c2cnc(Nc3ccc(C(=O)NC4CCN(CCOCCCC#Cc5cccc6c5CN(C5CCC(=O)NC5=O)C6=O)CC4)cc3OC)nc2N1C1CCCC1 (stereo partly shown) [Compound 902]		≤ 1000	≤ 100	≤ 1000	≤ 300	≤ 100				
CC[C@@H]1C(=O)N(C)c2cnc(Nc3ccc(C(=O)NC4CCN(CCNCCCOCCC#Cc5cccc6c5CN(C5CCC(=O)NC5=O)C6=O)CC4)cc3OC)nc2N1C1CCCC1 (stereo partly shown) [Compound 903]	≤ 100	≤ 1000	≤ 100	≤ 1000	300 to 1000	≤ 100				
CC[C@@H]1C(=O)N(C)c2cnc(Nc3ccc(C(=O)NC4CCN(CCCNCCCOCCC#Cc5cccc6c5CN(C5CCC(=O)NC5=O)C6=O)CC4)cc3OC)nc2N1C1CCCC1 (stereo partly shown) [Compound 904]	≤ 100	≤ 1000		> 1000	> 1000	500 to 1000				
CC[C@@H]1C(=O)N(C)c2cnc(Nc3ccc(C(=O)NC4CCN(CCCNCCOCCC#Cc5cccc6c5CN(C5CCC(=O)NC5=O)C6=O)CC4)cc3OC)nc2N1C1CCCC1 (stereo partly shown) [Compound 905]	≤ 100	≤ 1000		> 1000	> 1000	100 to 500				
CC[C@@H]1C(=O)N(C)c2cnc(Nc3ccc(C(=O)NC4CCN(CCCCNCCCC#Cc5cccc6c5CN(C5CCC(=O)NC5=O)C6=O)CC4)cc3OC)nc2N1C1CCCC1 (stereo partly shown) [Compound 922]	≤ 100		100 to 1000	≤ 1000	300 to 1000	100 to 500			≤ 1000	
CC[C@@H]1C(=O)N(C)c2cnc(Nc3ccc(C(=O)NC4CCN(CCCCN(C)CCCC#Cc5cccc6c5CN(C5CCC(=O)NC5=O)C6=O)CC4)cc3OC)nc2N1C1CCCC1 (stereo partly shown) [Compound 923]	≤ 100		≤ 100	≤ 1000	≤ 300	100 to 500			≤ 1000	
CC[C@@H]1C(=O)N(C)c2cnc(Nc3ccc(C(=O)NC4CCN(CCCOCCN(C)CCCC#Cc5cccc6c5CN(C5CCC(=O)NC5=O)C6=O)CC4)cc3OC)nc2N1C1CCCC1 (stereo partly shown) [Compound 924]	≤ 100		≤ 100	≤ 1000	≤ 300	100 to 500			≤ 1000	
CC[C@@H]1C(=O)N(C)c2cnc(Nc3ccc(C(=O)NC4CCC(N5CCN(CCCC(=O)NC#Cc6cccc7c6CN(C6CCC(=O)NC6=O)C7=O)CC5)CC4)cc3OC)nc2N1C1CCCC1 (stereo partly shown) [Compound 926]	≤ 100		≤ 100	≤ 1000	300 to 1000	100 to 500			≤ 1000	
CC[C@@H]1C(=O)N(C)c2cnc(Nc3ccc(C(=O)NCCCOCCN(C)CCC#Cc4cccc5c4CN(C4CCC(=O)NC4=O)C5=O)cc3OC)nc2N1C1CCCC1 (stereo partly shown) [Compound 927]	≤ 100		≤ 100	≤ 1000	≤ 300	≤ 100			≤ 1000	
CC[C@@H]1C(=O)N(C)c2cnc(Nc3ccc(C(=O)NC4CCN(C5CN(CCC#Cc6cccc7c6CN(C6CCC(=O)NC6=O)C7=O)C5)CC4)cc3OC)nc2N1C1CCCC1 (stereo partly shown) [Compound 928]	≤ 100		≤ 100	≤ 1000	≤ 300	≤ 100			≤ 1000	
CC[C@@H]1C(=O)N(C)c2cnc(Nc3ccc(C(=O)NCCCOCCCOCCN(C)CCC#Cc4cccc5c4CN(C4CCC(=O)NC4=O)C5=O)cc3OC)nc2N1C1CCCC1 (stereo partly shown) [Compound 930]	≤ 100		≤ 100	≤ 1000	≤ 300	≤ 100			≤ 1000	
CC[C@@H]1C(=O)N(C)c2cnc(Nc3ccc(C(=O)NC4CCN(CCN(C)CCCOCCC#Cc5cccc6c5CN(C5CCC(=O)NC5=O)C6=O)CC4)cc3OC)nc2N1C1CCCC1 (stereo partly shown) [Compound 932]	≤ 100		≤ 100	≤ 1000	≤ 300	≤ 100			≤ 1000	
CC[C@@H]1C(=O)N(C)c2cnc(Nc3ccc(C(=O)NC4CCC(N5CCN(CCCNCCC#Cc6cccc7c6CN(C6CCC(=O)NC6=O)C7=O)CC5)CC4)cc3OC)nc2N1C1CCCC1 (stereo partly shown) [Compound 933]	≤ 100		100 to 1000	≤ 1000	300 to 1000	100 to 500			≤ 1000	
